Experimental data as given in publication PMC12472494, “Anticonvulsant Potential of 1-Aryl-6,7-dimethoxy-1,2,3,4-tetrahydroisoquinolines: Insights from Strychnine and Nicotine Models in In Vivo and In Silico Studies” (Pharmaceuticals, 2025).
“Also recorded” adds a separate entry of the source.

Columns and labels:
[1] = system: strychnine-induced seizures; assay: Strychnine-induced seizure model; format: in vivo, mice; conditions: for responders at 1 mg/kg: Mus musculus, read-out: Survival Rate; for responders at 1 mg/kg / Duration of Tremor and Seizures / Latency to Tremor and Seizure Onset: oral dose 1.0 mg/kg 60 min before strychnine 1.5 mg/kg s.c., N = 10; for Duration of Tremor and Seizures / Latency to Tremor and Seizure Onset: mean ± SD; for survival rate of strychnine-poisoned animals: dose not given
From the text: (§1) The anticonvulsant effects of the examined substances were studied in male white mice weighing 18–22 g, divided into the following groups: control (including the strychnine and nicotine groups), carbamazepine group, Convulex group, and experimental groups (one for each tested substance). Simple randomization (“heads or tails” coin toss) was used to assign animals to groups. Each group contained 10 animals. Healthy animals were included in the experiments after a 14-day quarantine period. No animals were excluded from the study. Convulsant agents were administered subcutaneously at doses of 10.0 mg/kg for nicotine (Sigma–Aldrich, Saint Louis, MO, USA) and 1.5 mg/kg for strychnine (Sigma–Aldrich, Saint Louis, MO, USA), 60 min after the oral administration of the test substances at doses ranging from 0.1 to 10 mg/kg. The onset time, duration of tremors and seizures, and survival rate of the animals were recorded. Carbamazepine (Darnitsa, Kiev, Ukraine) at doses of 5.0–10.0 mg/kg and Convulex (valproate) (Gerot Pharmazeutika GmbH, Vienna, Austria) at doses of 75.0–100.0 mg/kg (based on the therapeutic anticonvulsant dose) were used as reference drugs.
(§2) Data were presented as mean ± SD for different groups. Statistical analysis was performed using OriginPro 9.0 (MicroCal Software, Northampton, MA, USA), with p < 0.05 considered statistically significant.

[2] = system: tremorogenic and convulsive actions of nicotine; assay: Nicotine-induced tremor and seizure model; format: in vivo, mice; conditions: for responders at 1 mg/kg: Mus musculus, po, read-out: Survival Rate; for Duration of Seizures / Latency to Seizure Onset: oral dose 1.0 mg/kg 60 min before nicotine 10 mg/kg s.c., mean ± SD, N = 10; for survival rate of the animals increased to: at low doses (0.1–5 mg/kg); for activity against tremorogenic and convulsive actions of nicotine versus reference drugs (in words): doses of 0.1–5 mg/kg
From the text: as §1, §2

[3] = set-up: method as in PMID 36677539; conditions: per os; cited from earlier work
[4] = doses of 0.5–1 mg/kg, versus control

Row | SMILES | responders at 1 mg/kg [1] [%] | Duration of Tremor and Seizures [1] [min] | Latency to Tremor and Seizure Onset [1] [min] | responders at 1 mg/kg [2] [%] | Duration of Seizures [2] [min] | Latency to Seizure Onset [2] [min] | LD50 [3] | survival of poisoned animals compared to carbamazepine and valproate (in words) ([2]; mouse, in vivo) | survival rate of the animals increased to [2] | activity against tremorogenic and convulsive actions of nicotine versus reference drugs (in words) [2] | survival rate of strychnine-poisoned animals [1] | increase of animal survival ([1]; doses of 0.5–1 mg/kg) [%] | extension of the latency period for seizures [1, 4] | reduction of seizure duration [1, 4] | activity against strychnine-induced seizures (in words) ([1]; ranking within the series) | survival rate in nicotine-poisoned animals ([2]; from a dose of 0.1 mg/kg) [%]
1 | COc1cc2c(cc1OC)C(c1ccccc1N)NCC2 (centres unmarked) [Compound 32, 1-(2′-Aminophenyl)-6,7-dimethoxy-1,2,3,4-tetrahydroisoquinoline] | 50 | 0.34 ± 0.4 | 18.2 ± 1.7 | 60 | 12.2 ± 0.8 | 1.8 ± 0.06 | 366.3 (326.3 ± 395.6) mg/kg |  |  |  |  |  |  |  |  | 
2 | COc1cc2c(cc1OC)C(c1cccc(N)c1)NCC2 (centres unmarked) [Compound 33, 1-(3′-Aminophenyl)-6,7-dimethoxy-1,2,3,4-tetrahydroisoquinoline] | 50 | 0.42 ± 0.8 | 16.7 ± 1.0 | 80 | 17.0 ± 0.6 | 2.2 ± 0.04 | 732.0 (598.2 ± 885.4) mg/kg |  |  |  |  |  |  |  |  | 
3 | COc1cc2c(cc1OC)C(c1cc(Br)c(O)c(OC)c1)NCC2 (centres unmarked) [Compound 28, 1-(5′-Bromo-4′-hydroxy-3′-methoxyphenyl)-6,7-dimethoxy-1,2,3,4-tetrahydroisoquinoline] | 20 | 0.34 ± 0.8 | 15.5 ± 1.5 | 70 | 9.2 ± 0.4 | 2.7 ± 0.04 | 1532.7 (1471.5 ± 1579.5) mg/kg | did not improve the survival |  |  |  |  |  |  |  | 
4 | COc1cc2c(cc1OC)C(c1cccc([N+](=O)[O-])c1)NCC2 (centres unmarked) [Compound 8, 1-(3′-Nitrophenyl)-6,7-dimethoxy-1,2,3,4-tetrahydroisoquinoline] | 40 | 0.56 ± 0.4 | 15.9 ± 1.7 | 90 | 15.5 ± 0.3 | 2.3 ± 0.08 | 531.4 (501.3 ± 554.1) mg/kg |  | 90–100% | comparable activity to the reference drugs |  |  |  |  |  | 
5 | COc1cc2c(cc1OC)C(c1ccc(Br)cc1)NCC2 (centres unmarked) [Compound 15, 1-(4′-Bromophenyl)-6,7-dimethoxy-1,2,3,4-tetrahydroisoquinoline] | 40 | 0.50 ± 0.5 | 12.5 ± 1.2 | 70 | 8.3 ± 0.3 | 2.2 ± 0.07 | 422.0 (399.4 ± 445.3) mg/kg |  |  |  | no more than 40% |  |  |  |  | 
6 | COc1cc2c(cc1OC)C(c1cccc(Br)c1)NCC2 (centres unmarked) [Compound 14, 1-(3′-Bromophenyl)-6,7-dimethoxy-1,2,3,4-tetrahydroisoquinoline] | 60 | 0.35 ± 0.8 | 18.5 ± 1.5 | 90 | 2.5 ± 0.4 | 2.8 ± 0.02 | 446.7 (416.2 ± 471.3) mg/kg |  | 90–100% | comparable activity to the reference drugs |  |  |  |  |  | 
7 | COc1cc2c(cc1OC)C(c1ccc(N)cc1)NCC2 (centres unmarked) [Compound 34, 1-(4′-Aminophenyl)-6,7-dimethoxy-1,2,3,4-tetrahydroisoquinoline] | 40 | 0.34 ± 0.7 | 15.5 ± 1.8 | 90 | 10.2 ± 0.7 | 2.2 ± 0.04 | 1043.2 (993.3 ± 1082.6) mg/kg |  | 90–100% | comparable activity to the reference drugs |  |  |  |  |  | 
8 | COc1cc(Br)c(C2NCCc3cc(OC)c(OC)cc32)cc1OC (centres unmarked) [Compound 25, 1-(2′-Bromo-4′,5′-dimethoxyphenyl)-6,7-dimethoxy-1,2,3,4-tetrahydroisoquinoline] | 90 | 0.14 ± 0.6 | 16.5 ± 1.5 | 90 | 9.0 ± 0.9 | 2.2 ± 0.04 | 272.1 (249.1 ± 295.6) mg/kg |  | 90–100% | comparable activity to the reference drugs | 90% | 90 | 30–100% | 3.7–4 times | most active; also recorded: highest activity | 
9 | COc1cc2c(cc1OC)C(c1cc(OC)c(OC)cc1[N+](=O)[O-])NCC2 (centres unmarked) [Compound 26, 1-(4′,5′-Dimethoxy-2′-nitrophenyl)-6,7-dimethoxy-1,2,3,4-tetrahydroisoquinoline] | 40 | 0.51 ± 0.8 | 16.7 ± 1.2 | 80 | 10.8 ± 0.4 | 2.6 ± 0.03 | 524.5 (501.3 ± 547.7) mg/kg |  |  |  |  |  |  |  |  | 
10 | COc1cc2c(cc1OC)C(c1ccccc1Cl)NCC2 (centres unmarked) [Compound 10, 1-(2′-Chlorophenyl)-6,7-dimethoxy-1,2,3,4-tetrahydroisoquinoline] | 30 | 0.60 ± 0.4 | 17.2 ± 1.7 | 70 | 9.2 ± 0.9 | 2.2 ± 0.03 | 264.2 (224.8 ± 293.9) mg/kg |  |  |  |  |  |  |  |  | 
11 | COc1cc2c(cc1OC)C(c1ccccc1OC)NCC2 (centres unmarked) [Compound 6, 1-(2′-Methoxyphenyl)-6,7-dimethoxy-1,2,3,4-tetrahydroisoquinoline] | 30 | 0.50 ± 0.4 | 15.7 ± 1.7 | 100 | 10.5 ± 0.5 | 2.4 ± 0.03 | 286.7 (256.9 ± 318.7) mg/kg |  | 90–100% | comparable activity to the reference drugs | no more than 40% |  |  |  |  | 90
12 | COc1cc2c(cc1OC)C(c1ccc3c(c1)OCO3)NCC2 (centres unmarked) [Compound 29, 1-(3′,4′-Methylenedioxyphenyl)-6,7-dimethoxy-1,2,3,4-tetrahydroisoquinoline] | 50 | 0.32 ± 0.9 | 12.5 ± 1.8 | 90 | 3.7 ± 0.9 | 2.5 ± 0.07 | 267.2 (226.3 ± 301.1) mg/kg |  | 90–100% | comparable activity to the reference drugs |  |  |  |  |  | 
13 | COc1cc2c(cc1OC)C(c1cccc(OC)c1[N+](=O)[O-])NCC2 (centres unmarked) [Compound 23, 1-(3′-Methoxy-2′-nitrophenyl)-6,7-dimethoxy-1,2,3,4-tetrahydroisoquinoline] | 30 | 0.60 ± 0.4 | 14.6 ± 1.4 | 20 | 5.4 ± 0.9 | 1.5 ± 0.08 | 315.4 (281.0 ± 344.2) mg/kg |  |  |  |  |  |  |  |  | 
14 | COc1ccc(C2NCCc3cc(OC)c(OC)cc32)cc1OC (centres unmarked) [Compound 22, 1-(3′,4′-Dimethoxyphenyl)-6,7-dimethoxy-1,2,3,4-tetrahydroisoquinoline] | 30 | 0.71 ± 0.6 | 12.7 ± 1.3 | 80 |  | 2.2 ± 0.04 | 666.6 (557.9 ± 760.2) mg/kg |  |  |  | no more than 40% |  |  |  |  | 
15 | COc1cc2c(cc1OC)C(c1ccc(N(C)C)cc1)NCC2 (centres unmarked) [Compound 16, 1-(4′-Dimethylaminophenyl)-6,7-dimethoxy-1,2,3,4-tetrahydroisoquinoline] | 50 | 0.31 ± 0.6 | 13.1 ± 1.5 | 90 | 8.5 ± 0.7 | 2.7 ± 0.08 | 498.3 (471.6 ± 524.6) mg/kg |  | 90–100% | comparable activity to the reference drugs |  |  |  |  |  | 
